One assay addresses T1, human SGLT2 (Homo sapiens, UniProt P31639).
T1 construct: expressed in transfected cells
T1 sequence (P31639 1-672): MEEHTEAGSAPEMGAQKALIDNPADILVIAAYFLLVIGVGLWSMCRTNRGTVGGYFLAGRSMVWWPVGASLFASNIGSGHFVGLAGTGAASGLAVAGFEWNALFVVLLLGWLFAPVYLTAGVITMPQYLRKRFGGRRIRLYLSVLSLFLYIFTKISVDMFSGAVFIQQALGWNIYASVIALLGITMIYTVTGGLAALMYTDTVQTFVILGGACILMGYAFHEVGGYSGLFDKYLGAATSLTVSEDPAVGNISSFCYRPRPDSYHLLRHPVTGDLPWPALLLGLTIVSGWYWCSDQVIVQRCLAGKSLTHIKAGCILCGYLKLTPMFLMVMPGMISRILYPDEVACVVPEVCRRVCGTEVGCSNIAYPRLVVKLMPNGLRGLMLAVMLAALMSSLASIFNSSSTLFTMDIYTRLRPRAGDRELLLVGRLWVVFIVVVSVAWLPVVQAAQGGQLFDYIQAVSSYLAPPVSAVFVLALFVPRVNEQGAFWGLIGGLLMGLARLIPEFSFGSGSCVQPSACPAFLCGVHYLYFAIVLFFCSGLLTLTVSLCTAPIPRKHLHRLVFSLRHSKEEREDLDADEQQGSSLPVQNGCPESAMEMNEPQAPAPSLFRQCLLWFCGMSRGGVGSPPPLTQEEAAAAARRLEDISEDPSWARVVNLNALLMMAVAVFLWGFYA
The assay is described as follows: SGLT2 assay: Na-dependent 14C-AMG uptake in CHO-K1 cells stably expressing human SGLT2. The note with it: for SGLT2 %-inhibition / inhibition at 0.3 µM: @ 0.3 μM; for IC50: average if tested more than once. The format is cell-based. How it is done:
(§1) The ability of the compounds of formula (I) of the present invention to treat an SGLT-mediated condition was determined using the following procedures:
(§2) SGLT1 and SGLT2 were cloned in form of cDNA from human small intestine (Genbank M24847), and from human kidney (Genbank M95549), respectively. Subsequently, each full cDNA was subcloned into pcDNA with each construct's integrity verified through follow-on sequencing. To generate CHO-K1 cells that stably express human SGLT1 or human SGLT2, CHO-K1 cells were transfected using DMRIE-C reagent (Life Technologies, Gaithersburg, Md.). Transfected cells were then selected in the presence of 500 μg/ml of the Geneticin (G418 Cellgro Catalog No. 30234-Cl)
(§3) Individual clones were then characterized using the following cell-based assay for sodium-dependent glucose transport:
(§4) Inhibition of SGLT1 and SGLT2 activity was assessed in CHO K1 cells stably expressing either human SGLT1 or SGLT2, using the SGLT specific glucose analog methyl-glucopyranoside (Sigma Catalog No. M-9376). Cells were plated (45,000 cells/well) in white wall 96-well plates (COSTAR, Cat #3903) for 24 hours in growth medium, then a final concentration of 10 mM Na-Butyrate (ALDRICH Cat #30341-0) was added. The cells were incubated for 24 hours. On the day of the assay, cells were rinsed and treated with test compounds (at concentrations of 0.001 μM to 10 μM) in assay buffer (50 mM HEPES, 20 mM Tris base, 5 mM KCl, 1 mM MgCl2, 1 mM CaCl2 and 137 mM NaCl, pH 7.4) for 10 minutes. Cells were then incubated with ^14C-a-methyl-d-glucopyranoside (AMG, Amersham Catalog No. CFB 76), using 0.07 μCi per well in 500 μM AMG final concentration. The cells were incubated for 2 hours at 37° C. with 5% CO2 and washed two times with ice-cold Phosphate Buffer Solution (Cellgro Catalog No. 21030-CV). The cells were then solubilized by adding 60 μl of MICROSCINT™20 and the Na-dependent ^14C-AMG uptake was quantified by measuring radioactivity. Plates were counted in a TopCount (Packard, Meriden, Conn.)
(§5) Representative compounds of the present invention were tested according to the procedures as described in Biological Example 1 and 2 above, with results as listed in Table 5, below. Results are reported as the %-inhibition or IC50 value. Variability for the functional assay was typically within 20%.

In another assay the target is T2, human SGLT1 (Homo sapiens, UniProt P13866).
T2 construct: expressed in transfected cells
T2 sequence (P13866 1-664): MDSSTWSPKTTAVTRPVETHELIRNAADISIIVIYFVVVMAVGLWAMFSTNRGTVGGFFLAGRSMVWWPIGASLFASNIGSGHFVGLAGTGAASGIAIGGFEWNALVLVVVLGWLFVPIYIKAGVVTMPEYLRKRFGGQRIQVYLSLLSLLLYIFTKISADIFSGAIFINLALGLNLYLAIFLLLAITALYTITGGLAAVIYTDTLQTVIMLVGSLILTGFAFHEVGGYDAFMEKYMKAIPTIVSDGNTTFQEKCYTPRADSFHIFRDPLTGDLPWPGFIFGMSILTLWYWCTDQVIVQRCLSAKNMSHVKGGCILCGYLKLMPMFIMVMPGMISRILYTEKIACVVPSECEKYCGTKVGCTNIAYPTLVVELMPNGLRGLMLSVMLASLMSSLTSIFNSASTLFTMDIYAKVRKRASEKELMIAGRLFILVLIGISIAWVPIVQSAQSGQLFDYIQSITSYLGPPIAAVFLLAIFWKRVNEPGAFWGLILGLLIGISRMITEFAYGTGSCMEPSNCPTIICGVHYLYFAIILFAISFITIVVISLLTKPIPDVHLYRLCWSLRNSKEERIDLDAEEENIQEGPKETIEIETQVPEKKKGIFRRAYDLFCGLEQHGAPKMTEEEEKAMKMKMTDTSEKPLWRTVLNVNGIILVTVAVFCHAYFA
The assay is described as follows: SGLT1 assay: Na-dependent 14C-AMG uptake in CHO-K1 cells stably expressing human SGLT1. The note with it: for SGLT1 %-inhibition / inhibition at 0.3 µM: @ 0.3 μM; for IC50: average if tested more than once. The format is cell-based. How it is done:
as §1, §2, §3, §4, §5

As a reminder, the IC50 is the concentration needed to halve the response being measured. What is called inhibition is the share of the control response that was lost under treatment. The low end stands for a response near the control, the high end for a response far below the control.

With `Cc1ccc([C@@H]2O[C@H](CO)[C@@H](F)[C@H](O)[C@H]2O)cc1Cc1cc2c(s1)CCN(C(=O)N1CCCC1)C2` [Compound 78], the SGLT2 %-inhibition on human SGLT2 amounted to 86.9% @ 0.3 μM. In addition, on human SGLT1, the SGLT1 %-inhibition was 28.4% @ 0.3 μM.

For the compound `COc1cc(O)c([C@@H]2O[C@H](CO)[C@@H](F)[C@H](O)[C@H]2O)cc1Cc1cc2c(s1)CCN(C(C)=O)C2` [Compound 79], the IC50 at human SGLT2 was determined as 0.137 µM; against human SGLT1, 0.126 µM.

Take `COC(=O)N1CCc2sc(Cc3cc([C@@H]4O[C@H](CO)[C@@H](F)[C@H](O)[C@H]4O)ccc3Cl)cc2C1` [Compound 80]: the SGLT2 %-inhibition on human SGLT2 amounted to 60.4% @ 0.3 μM. On human SGLT1, the SGLT1 %-inhibition was 37.4% @ 0.3 μM.

Consider `COc1cc(C)c(Cc2cc3c(s2)CCN(C(=O)N2CCCC2)C3)cc1[C@@H]1O[C@H](CO)[C@@H](F)[C@H](O)[C@H]1O` [Compound 81], for which the 50% inhibitory concentration (IC50) on human SGLT2 turned out to be 0.011 µM; on human SGLT1, 0.223 µM.

Turning to `COc1cc(OC)c([C@@H]2O[C@H](CO)[C@@H](F)[C@H](O)[C@H]2O)cc1Cc1cc2c(s1)CCN(C(C)=O)C2` [Compound 82], at human SGLT2, the SGLT2 %-inhibition is on record as 58.9% @ 0.3 μM. At human SGLT1, this compound yielded an SGLT1 %-inhibition of 42.2% @ 0.3 μM.

For the compound `COC(=O)N1CCc2sc(Cc3cc([C@@H]4O[C@H](CO)[C@@H](F)[C@H](O)[C@H]4O)c(OC)cc3OC)cc2C1` [Compound 83], the SGLT2 %-inhibition at human SGLT2 came out at 72.3% @ 0.3 μM. In addition, on human SGLT1, the SGLT1 %-inhibition is 17.4% @ 0.3 μM.

In the case of `Cc1cc(O)c([C@@H]2O[C@H](CO)[C@@H](F)[C@H](O)[C@H]2O)cc1Cc1cc2c(s1)CCN(C(=O)c1nccs1)C2` [Compound 84, (2-(5-((2S,3R,4R,5S,6R)-5-fluoro-3,4-dihydroxy-6-(hydroxymethyl)-tetrahydro-2H-pyran-2-yl)-4-hydroxy-2-methylbenzyl)-6,7-dihydrothieno[3,2-c]pyridin-5(4H)-yl)(thiazol-2-yl)methanone], the half-maximal inhibitory concentration (IC50) against human SGLT2 turned out to be 0.036 µM; against human SGLT1, 0.101 µM.

With `CC1(C)Oc2c(Cc3ccc4c(c3)OCCO4)cc([C@@H]3O[C@H](CO)[C@@H](F)[C@H](O)[C@H]3O)cc2C1CO` (some centres unmarked) [Compound 85], the SGLT2 %-inhibition on human SGLT2 is on record as 10.1% @ 0.3 μM. On human SGLT1, this compound registered an SGLT1 %-inhibition of 37.4% @ 0.3 μM.

`Cc1cc(O)c([C@@H]2O[C@H](CO)[C@@H](F)[C@H](O)[C@H]2O)cc1Cc1cc2c(s1)CCN(C(=O)C1CCCC1)C2` [Compound 86, Cyclopentyl(2-(5-((2S,3R,4R,5S,6R)-5-fluoro-3,4-dihydroxy-6-(hydroxymethyl)-tetrahydro-2H-pyran-2-yl)-4-hydroxy-2-methylbenzyl)-6,7-dihydrothieno[3,2-c]pyridin-5(4H)-yl)methanone]: the half-maximal inhibitory concentration (IC50) on human SGLT2 turned out to be 0.038 µM; against human SGLT1, 0.29 µM.

For the compound `Cc1ccc([C@@H]2O[C@H](CO)[C@@H](F)[C@H](O)[C@H]2O)cc1Cc1cc2c(s1)CCN(C(=O)C1CCCC1)C2` [Compound 87], at human SGLT2, the SGLT2 %-inhibition is given as 59.0% @ 0.3 μM. The SGLT1 %-inhibition at human SGLT1 was found to be 48.7% @ 0.3 μM.

With `CC1(CO)COc2c(Cc3ccc4c(c3)OCCO4)cc([C@@H]3O[C@H](CO)[C@@H](F)[C@H](O)[C@H]3O)cc21` (some centres unmarked) [Compound 88], on human SGLT2, the SGLT2 %-inhibition amounted to 44.8% @ 0.3 μM. Besides, on human SGLT1, the SGLT1 %-inhibition worked out at 42.5% @ 0.3 μM.

On to `OC[C@H]1O[C@@H](c2cc3c(c(Cc4ccc5c(c4)NCCC5)c2)OCC3)[C@H](O)[C@@H](O)[C@@H]1F` [Compound 89], for which the IC50 against human SGLT2 was determined as 0.1 µM; at human SGLT1, 0.042 µM.

At human SGLT2, `COc1cc(C)c(Cc2cc3c(s2)CCN(C(=O)C2CCCC2)C3)cc1[C@@H]1O[C@H](CO)[C@@H](F)[C@H](O)[C@H]1O` [Compound 91] displayed an SGLT2 %-inhibition of 65.5% @ 0.3 μM. In addition, the SGLT1 %-inhibition at human SGLT1 amounted to 31.7% @ 0.3 μM.

As for `Cc1ccc([C@@H]2O[C@H](CO)[C@@H](F)[C@H](O)[C@H]2O)cc1Cc1cc2c(s1)CCN(C#N)C2` [Compound 92, 2-(5-((2S,3R,4R,5S,6R)-5-fluoro-3,4-dihydroxy-6-(hydroxymethyl)-tetrahydro-2H-pyran-2-yl)-2-methylbenzyl)-6,7-dihydrothieno[3,2-c]pyridine-5(4H)-carbonitrile], the inhibition at 0.3 µM was determined as 76.2% against human SGLT2 and 29% at human SGLT1.

At human SGLT2, `OCCC1COc2c(Cc3ccc4c(c3)OCCO4)cc([C@@H]3O[C@H](CO)[C@@H](F)[C@H](O)[C@H]3O)cc21` (some centres unmarked) [Compound 93] yielded an SGLT2 %-inhibition of 42.3% @ 0.3 μM. The compound also had an SGLT1 %-inhibition at human SGLT1 of 33.6% @ 0.3 μM.

Take `CN1CCCc2ccc(Cc3cc([C@@H]4O[C@H](CO)[C@@H](F)[C@H](O)[C@H]4O)cc4c3OCC4)cc21` [Compound 94]: at human SGLT2, the SGLT2 %-inhibition is 19.2% @ 0.3 μM. Also, the SGLT1 %-inhibition at human SGLT1 amounted to 32.6% @ 0.3 μM.

Compound `COc1cc(Cl)c(Cc2cc3c(s2)CCN(C(=O)N2CCCC2)C3)cc1[C@@H]1O[C@H](CO)[C@@H](F)[C@H](O)[C@H]1O` [Compound 96] displayed an SGLT2 %-inhibition at human SGLT2 of 18.2% @ 0.3 μM. The same compound returned an SGLT1 %-inhibition at human SGLT1 of 29.1% @ 0.3 μM.

As to `O=C1COc2cc(Cc3cc([C@@H]4O[C@H](CO)[C@@H](F)[C@H](O)[C@H]4O)cc4c3OCC4)ccc2N1` [Compound 97], the SGLT2 %-inhibition at human SGLT2 is given as 67.9% @ 0.3 μM. This compound yielded an SGLT1 %-inhibition at human SGLT1 of 31.2% @ 0.3 μM.

On to `OC[C@H]1O[C@@H](c2cc(Cc3ccc4c(c3)OCCO4)c(O)c3c2OCC3)[C@H](O)[C@@H](O)[C@@H]1F` [Compound 98, (2S,3R,4R,5S,6R)-2-[5-(2,3-dihydro-1,4-benzodioxin-6-ylmethyl)-4-hydroxy-2,3-dihydrobenzofuran-7-yl]-5-fluoro-6-(hydroxymethyl)tetrahydropyran-3,4-diol], for which the inhibition at 0.3 µM against human SGLT2 came out at 26%; at human SGLT1 it was 30.9%.

At human SGLT2, `COc1cc(Cl)c(Cc2cc3c(s2)CCN(C#N)C3)cc1[C@@H]1O[C@H](CO)[C@@H](F)[C@H](O)[C@H]1O` [Compound 99] yielded an SGLT2 %-inhibition of 83.5% @ 0.3 μM. The SGLT1 %-inhibition on human SGLT1 is 28.9% @ 0.3 μM.

Consider `COc1cc(O)c([C@@H]2O[C@H](CO)[C@@H](F)[C@H](O)[C@H]2O)cc1Cc1cc2c(s1)CCN(C#N)C2` [Compound 100], for which the IC50 stood at 0.008 µM at human SGLT2 and 0.095 µM on human SGLT1.

Take `COc1c(Cc2ccc3c(c2)OCCO3)cc([C@@H]2O[C@H](CO)[C@@H](F)[C@H](O)[C@H]2O)c2c1CCO2` [Compound 101, (2S,3R,4R,5S,6R)-2-[5-(2,3-dihydro-1,4-benzodioxin-6-ylmethyl)-4-methoxy-2,3-dihydrobenzofuran-7-yl]-5-fluoro-6-(hydroxymethyl)tetrahydropyran-3,4-diol]: the IC50 was found to be 0.007 µM at human SGLT2 and 0.096 µM against human SGLT1.

The values are drawn from patent US11014917B2, “5-fluoro-c-(aryl or heterocyclyl)-glycoside derivatives useful as dual SGLT1 / SGLT2 modulators” (Janssen Pharmaceutica NV, priority 2017, dated 2021).
